Reference: patent publication US7521447B2, “P38 inhibitors and methods of use thereof” (Array Biopharma Inc., priority 2003, dated 2009)

What was measured:
activated p38α enzyme = activated p38α enzyme (Homo sapiens, UniProt Q16539); experiment: p38 Biochemical Assay; design: key: An “active” compound is defined as a compound having an IC50 below 500 nM; conditions: 5 nM activated p38α, 1 uM ATF-2 substrate, 10 μM ATP
Experimental: P38 activity was assayed at room temperature in a 100 μl reaction containing 5 nM activated p38α enzyme and 1 uM ATF-2 (Activating Transcription Factor 2 fusion protein) as the substrate in 25 mM HEPES (pH 7.4), 100 μM Vanadate, 1 mM DTT, 10 mM MgCl2 and 10 μM [[…]-^33P]-ATP (˜0.1 μCi P^33/reaction). The reaction was terminated after 30-40 minutes by adding 25% TCA, let stand for 5 minutes and then transferred directly to a GF-B membrane filter plate. The filter was washed twice for 30 seconds with 0.5% phosphoric acid using a Tomtec Mach III Automated Harvestor. After washing, the vacuum was continued for 30 seconds to dry the filter. Approximately 30 μl of scintillant was added per well to the filter plate and then read in a Liquid Scintillation Counter (Packard TopCount HTS).

[1] = test system: LPS-induced TNF-α secretion from human peripheral blood mononuclear cells (PBMC); experiment: PBMC Assay: inhibition of LPS-induced TNF-α secretion; format: cell-based; design: key: An “active” compound is defined as a compound having an IC50 below 500 nM; conditions: LPS-stimulated human PBMC, TNF-α ELISA
Experimental: The ability of compounds of this invention to inhibit TNF-α production was assessed by using human peripheral blood mononuclear cells (“PBMC”) which synthesize and secrete TNF-α when stimulated with lipopolysaccharide.
Compound test solutions were made by making 5 fold serial dilutions in DMSO, which dilutions were then diluted to 5× stocks by diluting with MEM, 2% heat inactivated fetal bovine serum (“FBS”), 20 mM HEPES, 2 mM L-glutamine, and 1% penicillin/streptomycin.
PBMC's were isolated from human blood as follows. Whole blood samples were collected from human volunteers into Vacutainer™ CPT from Becton Dickinson. Tubes were mixed and centrifuged at room temperature (18-25° C.) in a horizontal rotor for a minimum of 15 minutes at 1500-1800 RCF (relative centrifugal force). For each donor, the buffy coat layers were pooled into a single tube and washed twice with phosphate buffered saline (“PBS”). The cell pellet was resuspended in MEM, 2% heat inactivated fetal bovine serum (“FBS”), 20 mM HEPES, 2 mM L-glutamine, and 1% penicillin/streptomycin. Total cell number was determined using a hemocytometer and the cell suspension was adjusted to 2×10^6 cells/mL.
0.1 mL of cell suspension was added to each well of a 96-well cell culture plate. 30 μL of a compound test solution was added, and the cells were incubated in a 37° C./5% CO2 incubator for 1 hour. 20 μL of 7.5 ng/mL lipopolysaccharide (LPS E. Coli K-235) was then added to each well, and the cells were returned to the 37° C./5% CO2 incubator for 16-20 hours. The cells were centrifuged for 15 minutes at 1100 RCF. Approximately 0.12 mL of the supernatant was transferred into a clean 96 well polypropylene plate. The samples were either assayed immediately or were stored at −80° C. until ready for assay. TNF-α levels were determined in each sample using a human TNF-α ELISA assay such as that described below.
TNF-α levels were determined using the following assay. TNF-alpha antibody coated plates were prepared by adding 150 μL of 2 μg/mL anti-TNF-α purified mouse monoclonal IgG in Carbonate-Bicarbonate buffer (BupH™ Carbonate-Bicarbonate Buffer Pack) to wells of a 96-well Immulon 4 plate (Immulon 4 ELISA Flat Bottom Plate; Dynex, catalog number 011-010-3855) and incubated overnight at 2-8° C. Coating solution was removed and 200 μL of “blocking buffer” (20 mM HEPES pH 7.4, 150 mM NaCl, 2% BSA) was added and plates were stored 2-8° C. until ready to use. A ten-point recombinant human TNF-α standard curve was prepared by a 1:2 serial dilution in “sample diluent” (20 mM HEPES, pH 7.4, 150 mM NaCl, 2 mM MgCl2, 1% BSA) with a top concentration of 6000 pg/mL.
Blocking solution was removed from TNF-α ELISA plates by washing five times with 300 μL of “wash buffer” (20 mM HEPES, pH 7.4, 150 mM NaCl, 2 mM MgCl2, 0.02% Tween-20). 50 μL of “sample diluent” was added to all wells, and then either 50 μL of a TNF-α standard curve solution or test compound supernatant was added to all wells. The plate was incubated at room temperature for one hour with shaking (300 rpm). The plate was washed wash five times with 300 μL “wash buffer”. 100 μL of 0.2 μg/mL biotinylated goat anti-human TNF-α in “antibody diluent” (20 mM HEPES, pH 7.4, 150 mM NaCl, 2 mM MgCl2, 1% BSA, 0.02% Tween-20) was added per well, and the plate was incubated at room temperature for one hour with shaking (300 rpm). The plate was washed wash five times with 300 μL “wash buffer” per well. 100 μL of 0.02 μg/mL streptavidin alkaline phosphatase in “antibody diluent” was added per well, and the plate was incubated at room temperature for one hour with shaking (300 rpm). The plate was washed wash five times with 300 μL wash buffer per well. 200 μL of 1 mg/mL pNPP (p-nitrophenyl phosphate) in diethanolamine buffer with 0.5 mM MgCl2 was added per well, and the plate was incubated for 30 to 45 minutes at room temperature with shaking (300 rpm). […]

Sequence of activated p38α enzyme (Q16539 whole entry, the tested form may be a part): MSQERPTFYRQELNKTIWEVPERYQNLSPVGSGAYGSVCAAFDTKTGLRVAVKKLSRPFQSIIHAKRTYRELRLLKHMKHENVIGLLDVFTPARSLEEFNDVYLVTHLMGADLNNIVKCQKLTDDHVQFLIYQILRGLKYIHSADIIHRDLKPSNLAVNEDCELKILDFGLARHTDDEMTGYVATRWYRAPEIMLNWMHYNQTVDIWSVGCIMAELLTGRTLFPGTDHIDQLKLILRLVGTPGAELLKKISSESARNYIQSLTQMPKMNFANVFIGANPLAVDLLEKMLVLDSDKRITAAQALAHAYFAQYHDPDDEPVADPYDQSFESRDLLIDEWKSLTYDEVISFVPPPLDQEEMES

Row | Compound | p38 Inhibition IC50 (nM) (activated p38α enzyme) | PBMC IC50 (nM) [1]
1 | CCON=C(c1ccc(F)cc1)c1ccc2c(cnn2CC(C)C)c1 [Compound 7f-4, (4-fluorophenyl)-(1-isobutyl-1H-indazol-5-yl)-methanone O-ethyl-oxime] | active | –
2 | Cc1ccccc1C(O)c1ccc2c(cnn2CC(C)C)c1 (centres unmarked) [Compound 4f-10, (1-isobutyl-1H-indazol-5-yl)-O-tolyl methanol] | active | –
3 | CC(C)Cn1ncc2cc(Oc3ccccc3CC(=O)Nc3ccc(N4CCOCC4)cc3)ccc21 [Compound 16p, 2-[2-(1-isobutyl-1H-indazol-5-yloxy)-phenyl]-N-(4-morpholin-4-yl-phenyl)-acetamide] | active | –
4 | CC(C)Cn1ncc2cc(C(O)c3ccc(F)cc3Cl)ccc21 (centres unmarked) [Compound 4f-8, (2-chloro4-fluorophenyl)-(1-isobutyl-1H-indazol-5-yl)-methanol] | active | –
5 | CC(C)Cn1ncc2cc(C(O)c3ccc(Cl)cc3Cl)ccc21 (centres unmarked) [Compound 4f-9, (2,4-dichlorophenyl)-(1-isobutyl-1H-indazol-5-yl)-methanol] | active | inactive
6 | CC(C)Cn1ncc2cc(C(=NO)c3ccc(F)cc3F)ccc21 [Compound 7f-1, (2,4-difluorophenyl)-(1-isobutyl-1H-indazol-5-yl)-methanone oxime] | active | active
7 | CC(C)Cn1ncc2cc(C(=NO)c3ccc(F)cc3)ccc21 [Compound 7f-2, (4-fluorophenyl)-(1-isobutyl-1H-indazol-5-yl)-methanone oxime] | active | active
8 | Cc1ccc(-n2nc(C(C)(C)C)cc2NC(=O)NCc2cccnc2Oc2ccc3c(cnn3C)c2)cc1 [Compound 6n, 1-(5-tert-butyl-2-p-tolyl-2H-pyrazol-3-yl)-3-[2-(1-methyl-1H-indazol-5-yloxy)-pyridin-3-ylmethyl]-urea] | active | –
9 | CS(=O)(=O)n1ncc2cc(C(=NO)c3ccc(F)cc3F)ccc21 [Compound 7f-14, (2,4-difluorophenyl)-(1-methanesulfonyl-1H-indazol-5-yl)methanone oxime] | active | –
10 | COC(=O)C(CCN)NC(=O)c1cc2c(cnn2CC(F)(F)F)cc1Oc1ccc(F)cc1 (centres unmarked) [Compound 1j-4, 4-amino-2-{[5-(4-fluorophenoxy)-1-(2,2,2-trifluoroethyl)-1H-indazole-6-carbonyl]-amino}butyric acid methyl ester] | active | –
11 | CC(C)Cn1ncc2cc(C(O)c3ccc(Cl)cc3F)ccc21 (centres unmarked) [Compound 4f-7, (4-chloro-2-fluorophenyl)-(1-isobutyl-1H-indazol-5-yl)-methanol] | active | –
12 | Cc1ccc(-n2nc(C(C)(C)C)cc2NC(=O)NCc2cc(F)ccc2Oc2ccc3c(cnn3C)c2)cc1 [Compound 7t-1, 1-(5-tert-butyl-2-p-tolyl-2H-pyrazol-3-yl)-3-[5-fluoro-2-(1-methyl-1H-indazol-5-yloxy)-benzyl]urea] | active | –
13 | COC(=O)C(CCN)NC(=O)c1cc2c(cnn2CC(C)C)cc1Oc1ccc(F)cc1 (centres unmarked) [Compound 1j-2, 4-amino-2-{[5-(4-fluorophenoxy)-1-isobutyl-1H-indazole-6-carbonyl]-amino}butyric acid methyl ester] | active | –
14 | CON=C(c1ccc(F)cc1)c1ccc2c(cnn2CC(C)C)c1 [Compound 7f-9, (4-fluorophenyl)-(1-isobutyl-1H-indazol-5-yl)-methanone O-methyl-oxime] | active | –
15 | CON=C(c1ccc2c(cnn2CC(F)(F)F)c1)c1ccc(F)cc1F [Compound 7f-13, (2,4-difluorophenyl)-[1-(2,2,2-trifluoro-ethyl)-1H-indazol-5-yl]-methanone O-methyl oxime] | active | –
16 | C=CCn1ncc2cc(C(=O)c3ccc(F)cc3F)ccc21 [Compound 5f-12, (1-allyl-1H-indazol-5-yl)-(2,4-difluorophenyl)-methanone] | active | –
17 | Cc1ccc(-n2nc(C(C)(C)C)cc2NC(=O)NCc2cc(F)ccc2Nc2ccc3c(cnn3CC3CCC3)c2)cc1 [Compound 9q-2, 1-(5-tert-butyl-2-p-tolyl-2H-pyrazol-3-yl)-3-[2-(1-cyclobutylmethyl-1H-indazol-5-ylamino)-5-fluorobenzyl]-urea] | active | –
18 | CN(C)CCNC(=O)c1cc2c(cnn2CC(F)(F)F)cc1Oc1ccc(F)cc1 [Compound 11g-14, 5-(4-fluorophenoxy)-1-(2,2,2-trifluoroethyl)-1H-indazole-6-carboxylic acid (2-dimethylaminoethyl) amide] | active | –
19 | CC(C)Cn1ncc2cc(C(=NOCc3ccccc3)c3ccc(F)cc3F)ccc21 [Compound 7f-7, (2,4-difluorophenyl)-(1-isobutyl-1H-indazol-5-yl)-methanone O-benzyl-oxime] | active | –
20 | O=C(c1ccc2c(cnn2CC(F)(F)F)c1)c1ccc(F)cc1F [Compound 5f-11, (2,4-difluorophenyl)-[1-(2,2,2-trifluoro-ethyl)-1H-indazol-5-yl]-methanone] | active | –
21 | CON=C(c1ccc2c(cnn2S(C)(=O)=O)c1)c1ccc(F)cc1F [Compound 7f-15, (2,4-difluorophenyl)-(1-methanesulfonyl-1H-indazol-5-yl)-methanone O-methyl oxime] | active | –
22 | Cc1ccc(-n2nc(C(C)(C)C)cc2NC(=O)N(C)Cc2cc(F)ccc2Oc2ccc3c(cnn3C)c2)cc1 [Compound 28t, 3-(5-tert-butyl-2-p-tolyl-2H-pyrazol-3-yl)-1-[5-fluoro-2-(1-methyl-1H-indazol-5-yloxy)-benzyl]-1-methylurea] | active | –
23 | CC(C)Cn1ncc2cc(C(=O)c3ccc(F)cc3Cl)ccc21 [Compound 5f-8, (2-chloro-4-fluorophenyl)-(1-isobutyl-1H-indazol-5-yl)-methanone] | active | –
24 | C=CCn1ncc2cc(C(=NO)c3ccc(F)cc3F)ccc21 [Compound 7f-17, (1-allyl-1H-indazol-5-yl)-(2,4-difluorophenyl)-methanone oxime] | active | –
25 | CC(C)Cn1ncc2cc(Oc3ccc(F)cc3)c(C(N)=O)cc21 [Compound 11g-1, 5-(4-fluorophenoxy)-1-isobutyl-1H-indazole-6-carboxylic acid amide] | active | –
26 | ON=C(c1ccc2c(cnn2CC(F)(F)F)c1)c1ccc(F)cc1F [Compound 7f-12, (2,4-difluorophenyl)-[1-(2,2,2-trifluoroethyl)-1H-indazol-5-yl]-methanone oxime] | active | –
